Laboratory results from patent US10221163B2 (priority 2015, dated 2019).
Read-outs that look alike come from different tables or passages of the source.

Tests used:
[1] = tested on: Pseudomonas aeruginosa efflux+ (MB9798), IMP-1; format: cell-based; design: Concentration of metallo-β-lactamase inhibitor which restores susceptibility of efflux + (MB9798) strain to imipenem: unit not given here; settings: C, D serine β-lactamase inhibitor closely related to relebactam; for P. aeruginosa expressing IMP-1, efflux + (MB9798) MITC95: concentration restoring susceptibility to imipenem at 2 μg/mL in the presence of a class A
Summary of the method: (§1)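 PAO1 pair, broth microdilution; fixed β-lactam (imipenem/ceftazidime) at ~CLSI breakpoint + fixed class A/C BLI for AmpC; serial MBLi titration; endpoint = MBLi conc. restoring susceptibility; MB9798:MB9799 ratio = efflux liability.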

[2] = tested on: Pseudomonas aeruginosa efflux− (MB9799), IMP-1; format: cell-based; settings: C, D serine β-lactamase inhibitor closely related to relebactam; for P. aeruginosa expressing IMP-1, efflux − (MB9799) MITC95: concentration restoring susceptibility to imipenem at 2 μg/mL in the presence of a class A
Summary of the method: as §1

[3] = target: IMP-1 (Serratia marcescens, UniProt P52699); experiment: biochemical; format: biochemical; settings: fluorescence assay, CCF2-FA substrate, 2 pM enzyme, 2 hours at 25° C.; read-out: IMP-1 IC50
Sequence of IMP-1 (P52699 whole entry, looked up, species assumed): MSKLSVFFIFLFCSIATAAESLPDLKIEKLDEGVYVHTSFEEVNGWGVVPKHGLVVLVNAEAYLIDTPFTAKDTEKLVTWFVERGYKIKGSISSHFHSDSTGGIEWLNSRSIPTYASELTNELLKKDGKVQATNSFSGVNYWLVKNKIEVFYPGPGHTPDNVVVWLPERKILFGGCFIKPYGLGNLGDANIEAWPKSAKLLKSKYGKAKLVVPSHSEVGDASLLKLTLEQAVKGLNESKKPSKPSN
Summary of the method: (§2)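 Enzyme activity was measured by fluorescence using CCF2-FA, a cephalosporin-linked 7-hydroxycoumarin/fluorescein substrate, with inhibitor, metallo-β-lactamase and substrate incubated together for 2 hours at 25° C. IC50 came from a 4-parameter fit of inhibition versus log inhibitor concentration.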

[4] = target: NDM-1 (Klebsiella pneumoniae, UniProt C7C422); experiment: biochemical; format: biochemical; settings: fluorescence assay, CCF2-FA substrate, 1 pM enzyme, 2 hours at 25° C.; read-out: NDM-1 IC50
Sequence of NDM-1 (C7C422 whole entry, looked up, species assumed): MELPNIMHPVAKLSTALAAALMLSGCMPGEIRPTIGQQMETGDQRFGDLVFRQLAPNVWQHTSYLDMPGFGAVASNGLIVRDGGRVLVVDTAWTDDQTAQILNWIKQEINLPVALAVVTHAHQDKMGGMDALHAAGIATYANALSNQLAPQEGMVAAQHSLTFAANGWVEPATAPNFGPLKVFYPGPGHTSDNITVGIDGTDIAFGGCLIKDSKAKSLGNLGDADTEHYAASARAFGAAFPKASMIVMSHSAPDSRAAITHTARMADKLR
Summary of the method: as §2

[5] = tested on: Pseudomonas aeruginosa MB9798 vs MB9799
Summary of the method: as §1

[6] = target: VIM-1 (Pseudomonas aeruginosa (strain ATCC 15692 / DSM 22644 / CIP 104116 / JCM 14847 / LMG 12228 / 1C / PRS 101 / PAO1), UniProt A0A0F7KYQ8); experiment: biochemical; settings: CCF2-FA substrate, 30 pM enzyme, 2 hours at 25° C.
Summary of the method: as §2

[7] = tested on: Serratia marcescens expressing IMP-1 (CL5741); format: cell-based; settings: for Serratia marcescens expressing IMP-1 (CL5741) MITC95: with imipenem 1 μg/ml, 95% inhibition of bacterial growth; for Serratia marcescens MITC95: IMP-1 strain CL5741, with imipenem 1 μg/ml, 95% inhibition of growth
Summary of the method: (§3)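 Colonies grown overnight on blood agar at 35° C were suspended in saline, diluted 1:100 into 1.1×CAMHB and dispensed. Imipenem was added to 1 μg/ml, then test compound. After 22 hours to 24 hours at 35° C, absorbance was recorded.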

[8] = tested on: Escherichia coli expressing NDM-1 (CLB30005, CLB30016); format: cell-based; settings: with imipenem 1 μg/ml; for Escherichia coli expressing NDM-1 (CLB30016) MITC95: 95% inhibition of bacterial growth; for Escherichia coli MITC95: NDM-1 strain, 95% inhibition of growth
Summary of the method: as §3

[9] = tested on: Klebsiella pneumoniae expressing VIM-1 (IHMA599644); format: cell-based; settings: for Klebsiella pneumoniae expressing VIM-1 (IHMA599644) MITC95: with imipenem 1 μg/ml, 95% inhibition of bacterial growth; for Klebsiella pneumoniae MITC95: VIM-1 strain IHMA599644, with imipenem 1 μg/ml, 95% inhibition of growth
Summary of the method: as §3

[10] = ratio MITC95 PA_9798/MITC95 PA_9799
[11] = fluorescence assay, read-out: VIM-1 IC50

Structure (SMILES)	P. aeruginosa expressing IMP-1, efflux + (MB9798) MITC95 [1]	P. aeruginosa expressing IMP-1, efflux − (MB9799) MITC95 [2]	IC50 [3]	IC50 [4]	Efflux ratio [5, 10]	IC50 ([6]; VIM-1 IC50, fluorescence assay)	Serratia marcescens expressing IMP-1 (CL5741) MITC95 [7]	Escherichia coli expressing NDM-1 (CLB30016) MITC95 [8]	Klebsiella pneumoniae expressing VIM-1 (IHMA599644) MITC95 [9]	Concentration of metallo-β-lactamase inhibitor which restores susceptibility of efflux + (MB9798) strain to imipenem ([1]; efflux+ MB9798, imipenem at 2 μg/mL, in the presence of a class A)	Concentration of metallo-β-lactamase inhibitor which restores susceptibility of efflux − (MB9799) strain to imipenem ([2]; efflux− MB9799, imipenem at 2 μg/mL, in the presence of a class A)	Efflux ratio ([5]; fold difference between efflux+ (MB9798) and efflux− (MB9799) strains, imipenem at 2 μg/mL)	IC50 [6, 11]	Serratia marcescens MITC95 [7]	Escherichia coli MITC95 [8]	Klebsiella pneumoniae MITC95 [9]
CN1CC[C@@H](NS(=O)(=O)c2ccc(-c3cccc4[nH]c(N)nc34)c(-c3nn[nH]n3)c2S(N)(=O)=O)C1 [Example 232, (R)-4-(2-amino-1H-benzo[d]imidazol-4-yl)-N^1-(1-methylpyrrolidin-3-yl)-3-(2H-tetrazol-5-yl)benzene-1,2-disulfonamide]	1.563 µM	0.7813 µM	0.609 nM	0.0505 nM	2.00	0.16 nM	0.7813 µM	0.3906 µM	1.563 µM	–	–	–	–	–	–	–
Nc1ccc(-c2ccc(S(=O)(=O)NC[C@H]3CCCN3)c(S(N)(=O)=O)c2-c2nn[nH]n2)cn1 [Example 489, (R)-4-(6-aminopyridin-3-yl)-N1-(pyrrolidin-2-ylmethyl)-3-(2H-tetrazol-5-yl)benzene-1,2-disulfonamide]	–	–	0.566 nM	0.246 nM	–	–	–	–	–	1.563	0.7813	2.00	0.267 nM	0.3906 µM	0.3906 µM	1.563 µM
NCCNS(=O)(=O)c1ccc(-c2cccc3nonc23)c(-c2nn[nH]n2)c1S(N)(=O)=O [Example 239]	6.25 µM	0.7813 µM	1.06 nM	0.439 nM	8.00	–	1.563 µM	0.7813 µM	3.125 µM	–	–	–	0.113 nM	–	–	–
NCC(CO)(CO)NS(=O)(=O)c1ccc(-c2cccc3[nH]c(N)nc23)c(-c2nn[nH]n2)c1S(N)(=O)=O [Example 247, 4-(2-amino-1H-benzo[d]imidazol-4-yl)-N-1-(1-amino-3-hydroxy-2-(hydroxymethyl)propan-2-yl)-3-(2H-tetrazol-5-yl)benzene-1,2-disulfonamide]	1.563 µM	0.7813 µM	0.504 nM	0.0331 nM	2.00	–	–	–	–	–	–	–	0.149 nM	1.563 µM	0.7813 µM	3.125 µM
N#Cc1cccc(-c2ccc(S(=O)(=O)N[C@@H]3CCNC3)c(S(N)(=O)=O)c2-c2nnn[nH]2)c1N [Example 132, (R)-2′-amino-3′-cyano-N4-(pyrrolidin-3-yl)-2-(1H-tetrazol-5-yl)-[1,1′-biphenyl]-3,4-disulfonamide]	3.125 µM	0.7813 µM	1.4 nM	0.114 nM	4.00	–	1.563 µM	0.7813 µM	1.563 µM	–	–	–	0.124 nM	–	–	–
Cc1ccc(-c2ccc(S(=O)(=O)N[C@@H]3CCNC3)c(S(N)(=O)=O)c2-c2nn[nH]n2)c2nc(N)[nH]c12 [Example 285, (R)-4-(2-amino-7-methyl-1H-benzo[d]imidazol-4-yl)-N1-(pyrrolidin-3-yl)-3-(2H-tetrazol-5-yl)benzene-1,2-disulfonamide]	0.3906 µM	0.3906 µM	0.318 nM	0.0295 nM	1.00	0.0916 nM	–	–	–	–	–	–	–	0.7813 µM	0.7813 µM	0.7813 µM
C[C@@H](CCN)NS(=O)(=O)c1ccc(-c2cccc3[nH]c(N)nc23)c(-c2nn[nH]n2)c1S(N)(=O)=O [Example 267, (S)-4-(2-amino-1H-benzo[d]imidazol-4-yl)-N1-(4-aminobutan-2-yl)-3-(2H-tetrazol-5-yl)benzene-1,2-disulfonamide]	0.7813 µM	0.7813 µM	1.63 nM	0.179 nM	1.00	–	–	–	–	–	–	–	0.279 nM	1.563 µM	0.7813 µM	1.563 µM
NS(=O)(=O)c1c(S(=O)(=O)N[C@@H]2CCNC2)ccc(-c2cccn3ccnc23)c1-c1nn[nH]n1 [Example 291, (R)-4-(imidazo[1,2-a]pyridin-8-yl)-N1-(pyrrolidin-3-yl)-3-(2H-tetrazol-5-yl)benzene-1,2-disulfonamide]	0.7813 µM	0.7813 µM	0.169 nM	0.0505 nM	1.00	0.0694 nM	–	–	–	–	–	–	–	1.563 µM	0.7813 µM	3.125 µM
CN(C1CNC1)S(=O)(=O)c1ccc(-c2cccc3[nH]c(N)nc23)c(-c2nn[nH]n2)c1S(N)(=O)=O [Example 255, 4-(2-amino-1H-benzo[d]imidazol-4-yl)-N1-(azetidin-3-yl)-N1-methyl-3-(2H-tetrazol-5-yl)benzene-1,2-disulfonamide]	1.563 µM	0.7813 µM	2.84 nM	0.113 nM	2.00	–	–	–	–	–	–	–	0.936 nM	0.7813 µM	0.3906 µM	0.7813 µM
NCCN1CC[C@@H](NS(=O)(=O)c2ccc(-c3cccc4[nH]c(N)nc34)c(-c3nn[nH]n3)c2S(N)(=O)=O)C1 [Example 246, (R)-4-(2-amino-1H-benzo[d]imidazol-4-yl)-N1-(1-(2-aminoethyl)pyrrolidin-3-yl)-3-(2H-tetrazol-5-yl)benzene-1,2-disulfonamide]	1.563 µM	0.7813 µM	0.853 nM	0.0405 nM	2.00	0.12 nM	–	–	–	–	–	–	–	1.563 µM	0.7813 µM	1.563 µM
NCc1nc2c(-c3ccc(S(=O)(=O)N[C@@H]4CCNC4)c(S(N)(=O)=O)c3-c3nn[nH]n3)cccc2[nH]1 [Example 283, (R)-4-(2-(aminomethyl)-1H-benzo[d]imidazol-4-yl)-N1-(pyrrolidin-3-yl)-3-(2H-tetrazol-5-yl)benzene-1,2-disulfonamide]	0.7813 µM	0.7813 µM	1.2 nM	0.0721 nM	1.00	–	–	–	–	–	–	–	0.124 nM	0.6836 µM	0.7813 µM	1.172 µM
CNCCCN(C)S(=O)(=O)c1ccc(-c2cccc3sc(N)nc23)c(-c2nnn[nH]2)c1S(N)(=O)=O.O=C(O)C(F)(F)F [Example 93, 3-(4-(2-aminobenzo[d]thiazol-4-yl)-N-methyl-2-sulfamoyl-3-(1H-tetrazol-5-yl)phenylsulfonamido)-N-methylpropan-1-aminium 2,2,2-trifluoroacetate]	3.125 µM	3.125 µM	5.29 nM	6.35 nM	1.00	–	3.125 µM	6.25 µM	12.5 µM	–	–	–	12.4 nM	–	–	–
